Data from patent US7879795B2, “Enhancement of tigecycline potency using efflux pump inhibitors” (Mpex Pharmaceuticals, Inc., priority 2004, dated 2011).

Assays:
[1] = Stability in human kidney tissue preparations; type: in vitro ADME; settings: in words
Text: The pattern of in vitro stability of compound 3 (stable in serum but unstable in tissues) observed in rodents was also reproduced using human kidney tissues or serum. FIG. 7 compares the in vitro stability of compounds 1 and 3 in human kidney tissue preparations.
FIG. 8 depicts formation of the metabolite, compound 67, in human kidney tissue. Concomitant with the disappearance of compound 3, generation of the expected metabolite of the presumed intralysosomal degradation, compound 67, was detected using human kidney.

[2] = Acute toxicity, minimal lethal dose after IV bolus in mice; type: in vivo, mouse; settings: IV bolus into tail vein, lethal for at least one of three mice
Description: Acute toxicity was measured as minimal lethal dose (MLD). MLD is defined as a minimal concentration of a compound that has lethal effect for at least one mouse from the group of three mice after IV bolus injection into the mouse tail vein.

[3] = test system: laboratory strains of P. aeruginosa; assay: Tigecycline susceptibility of laboratory strains of P. aeruginosa over-expressing or lacking efflux pumps; type: cell-based
Description: (§1) The ability of compound 21 to increase susceptibility to tigecycline was also assessed. The tigecycline potentiating activity of compound 21 was assessed by the checkerboard assay (Antimicrobial Combinations, Antibiotics in Laboratory Medicine, ed. Victor Lorian, M.D., Fourth edition, 1996, pp 333-338, which is incorporated herein by reference in its entirety) using a broth micro-dilution method performed as recommended by the CSLI (Clinical and Laboratory Standards Institute, formerly NCCLS) guidelines (National Committee for Clinical Laboratory Standards 2003. Methods for Dilution Antimicrobial Susceptibility Tests for Bacteria That Grow Aerobically—Sixth Edition; Approved Standard. NCCLS Document M7-A6, Vol 20 No. 2). In this assay, multiple dilutions of the two drugs, compound 21 and tigecycline, were tested alone and in combination, at concentrations equal to, above and below their respective minimal inhibitory concentrations (MICs). […] The stock solution was further diluted in Mueller Hinton Broth (MHB). Stock solutions were stored at −80° C.
(§2) The checkerboard assay was performed in microtiter plates. Tigecycline was diluted in the x axis, each column containing a single concentration of tigecycline. Compound 21 was diluted in the y axis, each row containing an equal concentration of the EPI. […] The assay was performed in MHB with a final bacterial inoculum of 5×10^5 CFU/ml (from an early-log phase culture). The microtiter plates were incubated for 20 hours at 35° C. and then read using a microtiter plate reader (Molecular Devices) at 650 nm, as well as by visual observation using a microtiter plate-reading mirror.

[4] = test system: PAM 1626, Four pumps non-functional; assay: Tigecycline potentiation checkerboard assay, PAM 1626; type: cell-based, P. aeruginosa; set-up: Tigecycline MIC in the presence of Compound 21: unit not given here; settings: PAM 1626
Description: as §1, §2

Enterobacter cloacae 25 = assay: Antibiotic MIC with fixed concentration of compound 21, Enterobacter cloacae 25; type: cell-based
[5] = test system: strains of Klebsiella, Enterobacter and Citrobacter; assay: Potentiation of tigecycline against enterobacteria with decreased susceptibility to tigecycline; type: cell-based; settings: in words
Description: To further characterize the clinical potential of tigecycline/EPI combinations, the microbiological activity of tigecycline in combination with compound 21 was investigated using clinical isolates of P. aeruginosa and other gram-negative bacteria. In several experiments, described below, the impact of a fixed concentration of compound 21 (2.5 μg/ml) on susceptibility to tigecycline was determined.
The impact of compound 21 on the activity of tigecycline against representative members of Enterobacteriacaea was also tested.

[6] = test system: Strain S41, a clinical isolate; assay: microbe, parasite or virus in culture; type: cell-based, P. aeruginosa; settings: strain S41
[7] = test system: P. aeruginosa strain PAM 1032; assay: Mouse model of P. aeruginosa sepsis infection (tigecycline 50% effective dose); type: in vivo
Description: Tigecycline and compound 21 were prepared in sterile 0.9% saline. Seventy Swiss-Webster mice (Harlan laboratories) with body weights ranging from 22 to 25 grams at the start of the study were used. Upon receipt, the animals were housed 5 per cage in a room with a controlled environment and were acclimated to laboratory conditions for at least 24 hours prior to the start of dosing. Animals were provided food and water ad libitum. The health status of the animals was determined during the acclimation period and unhealthy animals were not placed on study. Each animal was identified by marking their tails with indelible ink and each cage was identified by animal, group, and study number.
P. aeruginosa strain PAM 1032 was grown in Mueller-Hinton Broth (MHB) at 35° C. under constant aeration. After 20 hours, the inoculum was sub-cultured into fresh MHB and allowed to regrow at 35° C., under constant aeration, for 4 hours. The inoculum was adjusted to ca. 4×10^7 CFU/ml by correlation of absorbance at 600 nm with predetermined plate counts. The inoculum was then diluted 2-fold in 14% hog-gastric mucin (Sigma, St. Louis, Mo.) for a final inoculum concentration of 2×10^7 CFU/ml. […] At 0 and 2 hours following infection, tigecycline was administered by the subcutaneous route and compound 21 was administered by the intraperitoneal route. […] The susceptibility of the test strain (P. aeruginosa PAM1032, […] MexAB-OprM) to tigecycline was 4 ug/ml, the susceptibility of the test strain to tigecycline in the presence of 2.5 μg/mL of compound 21 was 0.25 μg/mL.

[8] = test system: Klebsiella pneumonia, Proteus mirabilis, Morganella morganii, P. aeruginosa strains; assay: Tigecycline susceptibility of various bacterial strains in combination with compound 21 (Example 85); type: cell-based; settings: Example 85, written in present tense
Description: Standard CLSI methods for antimicrobial susceptibility testing, as outlined in National Committee for Clinical Laboratory Standards 2003, Methods for Dilution Antimicrobial Susceptibility Tests for Bacteria That Grow Aerobically—-6th ed., Approved Standard, NCCLS Document M7-A6, Vol 20 No. 2., are used to assess the activity of tigecycline in combination with compound 21. The following strains are tested: • Klebsiella pneumonia: G340, G595, G815, GC7335, GC7736, GC7737, tigecycline resistant mutants derived from G595 and G815 • Proteus mirabilis: G151, GC 7020, GC 6899, GC 6900, GC 7018, GC 7019 • Morganella morganii: G858, G1492, GC7676, GC7677, GC7743, GC7744 • P. aeruginosa: K767, K1523, K1525, XY1, XY3, K153, BXY1, BXY4, K1119, M1, M9, K1455.
Clinical isolates enriched with strains having a decreased susceptibility to tigecycline are also tested.

[9] = test system: Enterobacteriaceae, Acinetobacter, Burkholderia, Stenotrphomonas, Staphylococcus; settings: Example 86, written in present tense

For `NCCC[C@H](N)C(=O)N[C@H](CCc1ccccc1)C(=O)Nc1cnc2ccccc2c1` [Compound 3, 2-(S),5-Diamino-pentanoic acid [3-phenyl-1-(R)-(quinolin-3-ylcarbamoyl)-propyl]-amide], the “degradation in homogenates prepared from frozen cadaverous human kidney” value [1] was “Time-dependent degradation”, the “pH dependence of degradation in human kidney homogenates” value [1] was “stronger at lower pH” and the “MLD (minimal lethal dose)” value [2] was 25 mg/kg.
For `NCCC[C@H](N)C(=O)N[C@H](Cc1ccc(C(F)(F)F)cc1)C(=O)Nc1cnc2ccccc2c1` [Compound 21, 2-(S),5-Diamino-pentanoic acid [1-(R)-(quinolin-3-ylcarbamoyl)-2-(4-trifluoromethyl-phenyl)-ethyl]amide], the “effect on activity of tigecycline against strains expressing efflux pumps” value ([3]; in words) was “increases activity to tigecycline”, the “concentration required to completely inhibit the efflux pumps” value ([3]; tigecycline checkerboard) was 2.5 µg/mL and the “Tigecycline MIC in the presence of Compound 21” value (“Tigecycline MIC in the presence” below) ([4]; Compound 21 0.625 μg/ml) was 0.25. For the same molecule, the “Tigecycline MIC in the presence” value ([4]; Compound 21 1.25 μg/ml) was 0.25, the “Tigecycline MIC in the presence” value ([4]; Compound 21 5 μg/ml) was 0.25 and the “Tigecycline MIC in the presence” value ([4]; Compound 21 10 μg/ml) was 0.25. For the same molecule, the “Tigecycline MIC in the presence” value ([4]; Compound 21 20 μg/ml) was 0.5, the “Tigecycline MIC in the presence” value ([4]; Compound 21 […]) was 0.25 and the “Azi + EPI (MIC)” value (Enterobacter cloacae 25; azithromycin MIC with compound 21) was “≦0.125”. The “Levo + EPI at […] (MIC)” value (Enterobacter cloacae 25; levofloxacin MIC with compound 21 at […]) was 0.5, the “Tig + EPI at […] (MIC)” value (Enterobacter cloacae 25; tigecycline MIC with compound 21 at […]) was 0.5 and the “potentiation of tigecycline against strains with decreased susceptibility” value [5] was “potentiated tigecycline”. For the same molecule, the “Tigecycline MIC with Compound 21 at 5 μg/ml” value [6] was 0.125 µg/mL, the “Mutation Frequency on Tigecycline at 4 μg/ml with Compound 21 at 10 μg/ml” value ([6]; 4× MIC) was <1.5 × 10^−10 and the “reduction of the frequency of emergence of tigecycline resistance” value ([6]; compound 21 at 10 μg/ml) was “at least three orders of magnitude”. The “50% effective dose of tigecycline in combination with compound 21” value ([7]; mice, tigecycline SC, compound 21 IP at 0 and 2 hours) was “approximately 75 mg/k”, the “improvement of tigecycline 50% effective dose” value ([7]; with compound 21) was 2.5 fold and the “effect on development of resistance to tigecycline” value [8] was “reduces the development of resistance”. The “effect on resistance to tigecycline in bacterial strains” value [8] was “decreases resistance to tigecycline”, the “effect on susceptibility of the strains to tigecycline” value [8] was “increases the susceptibility of the strains to tigecycline” and the “effect on tigecycline resistance and emergence of resistance” value [9] was “reduces tigecycline resistance and emergence of resistance”.
